# Assay results published in patent US20110003865A1, “NOVEL 2-DIETHYLAMINO-3-AMIDO-6-AMINO-PYRIDINE DERIVATIVES USEFUL AS POTASSIUM CHANNEL ACTIVATORS” (priority 2007, published 2011).
# Target: T1, human Kv72+3 channels (Homo sapiens, UniProt O43525+O43526)
# T1 construct: expressed in transfected cells; host or cells: HEK293
# Experiment: Patch-clamp, HEK293 cells stably expressing human Kv7.2+3 channels
# Type: cell-based
# Conditions: conc. 0.03 μM, −30 mV, 20 ms; current relative to baseline current defined as 100%
# Excerpt: The effect obtained by these channel activators is described as a percentage increase in baseline current at a given concentration. The baseline current is defined as 100%, and an increase in current is expressed relative to this, i.e. an increase from 1 nA to 1.2 nA is reported as 120%.
# T1 sequence (O43526 whole entry): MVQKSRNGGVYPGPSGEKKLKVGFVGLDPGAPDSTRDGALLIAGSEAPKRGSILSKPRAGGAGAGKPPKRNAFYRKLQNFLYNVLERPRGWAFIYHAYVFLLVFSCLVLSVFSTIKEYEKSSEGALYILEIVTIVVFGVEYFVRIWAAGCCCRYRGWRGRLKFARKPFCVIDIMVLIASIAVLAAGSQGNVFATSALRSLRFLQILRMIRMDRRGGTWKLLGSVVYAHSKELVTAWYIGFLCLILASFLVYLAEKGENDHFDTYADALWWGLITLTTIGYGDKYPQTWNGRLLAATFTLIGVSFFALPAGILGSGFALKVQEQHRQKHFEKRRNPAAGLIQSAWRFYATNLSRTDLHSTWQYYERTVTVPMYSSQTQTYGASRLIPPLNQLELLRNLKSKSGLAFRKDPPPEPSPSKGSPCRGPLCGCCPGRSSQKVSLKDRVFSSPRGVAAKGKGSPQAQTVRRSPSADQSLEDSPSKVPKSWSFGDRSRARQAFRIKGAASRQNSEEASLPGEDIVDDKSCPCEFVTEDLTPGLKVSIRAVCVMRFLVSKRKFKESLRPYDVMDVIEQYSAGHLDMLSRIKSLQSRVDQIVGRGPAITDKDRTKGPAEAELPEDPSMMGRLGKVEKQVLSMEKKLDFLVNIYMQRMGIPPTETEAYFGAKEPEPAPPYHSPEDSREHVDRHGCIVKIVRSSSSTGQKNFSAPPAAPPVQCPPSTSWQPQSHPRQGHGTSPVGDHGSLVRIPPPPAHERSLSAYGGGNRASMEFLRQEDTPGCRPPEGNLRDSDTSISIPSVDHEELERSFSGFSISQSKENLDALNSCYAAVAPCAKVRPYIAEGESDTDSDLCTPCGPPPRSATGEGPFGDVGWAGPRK
# T1 sequence (O43525 whole entry): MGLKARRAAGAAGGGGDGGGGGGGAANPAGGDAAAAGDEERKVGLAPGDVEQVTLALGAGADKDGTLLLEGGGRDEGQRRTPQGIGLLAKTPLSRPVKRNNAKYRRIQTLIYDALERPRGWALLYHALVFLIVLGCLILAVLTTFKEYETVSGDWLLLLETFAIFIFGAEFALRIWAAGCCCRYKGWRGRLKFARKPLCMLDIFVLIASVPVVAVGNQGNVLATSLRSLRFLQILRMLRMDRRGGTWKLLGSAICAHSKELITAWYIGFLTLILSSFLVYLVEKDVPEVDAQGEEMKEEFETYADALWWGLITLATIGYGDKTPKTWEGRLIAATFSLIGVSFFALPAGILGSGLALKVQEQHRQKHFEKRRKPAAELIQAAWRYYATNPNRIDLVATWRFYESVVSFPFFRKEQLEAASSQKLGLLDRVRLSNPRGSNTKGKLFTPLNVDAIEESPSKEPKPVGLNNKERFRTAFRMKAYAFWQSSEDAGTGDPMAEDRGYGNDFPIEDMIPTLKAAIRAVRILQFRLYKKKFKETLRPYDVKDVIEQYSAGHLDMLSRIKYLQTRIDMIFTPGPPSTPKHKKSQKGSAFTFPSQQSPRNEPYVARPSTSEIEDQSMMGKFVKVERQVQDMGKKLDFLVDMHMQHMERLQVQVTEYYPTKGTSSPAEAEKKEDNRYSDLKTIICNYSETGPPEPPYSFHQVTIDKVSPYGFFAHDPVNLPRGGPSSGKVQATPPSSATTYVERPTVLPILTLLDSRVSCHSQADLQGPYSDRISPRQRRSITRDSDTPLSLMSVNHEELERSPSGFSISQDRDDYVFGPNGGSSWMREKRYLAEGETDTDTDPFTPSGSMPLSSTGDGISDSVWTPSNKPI
row,IK (%),SMILES
1,520%,"CCN(CC)c1nc(NCc2ccc(F)cc2)ccc1NC(=O)[C@@H]1C[C@H]1c1ccccc1 (relative stereo) [Compound 7, trans-2-Phenyl-cyclopropanecarboxylic acid [2-diethylamino-6-(4-fluoro-benzylamino)-pyridin-3-yl]-amide]"
2,550%,"CCN(CC)c1nc(NCc2ccc(F)cc2)ccc1NC(=O)CC(C)(C)C [Compound 9, N-[2-Diethylamino-6-(4-fluoro-benzylamino)-pyridin-3-yl]-3,3-dimethyl-butyramide]"
3,334%,"CCN(CC)c1nc(NCc2ccc(F)cc2)ccc1NC(=O)[C@@H](C)c1ccccc1 [Compound 4, (S)—N-[2-Diethylamino-6-(4-fluoro-benzylamino)-pyridin-3-yl]-2-phenyl-propionamide]"
4,282%,"CCN(CC)c1nc(NCc2ccc(F)cc2)ccc1NC(=O)Cc1ccc(C(F)(F)F)c(F)c1 [Compound 3, N-[2-Diethylamino-6-(4-fluoro-benzylamino)-pyridin-3-yl]-2-(3-fluoro-4-trifluoromethyl-phenyl)-acetamide]"
5,1247%,"CCN(CC)c1nc(NCc2ccc(F)cc2)ccc1NC(=O)Cc1cc(F)cc(F)c1 [Compound 1, N-[2-Diethylamino-6-(4-fluoro-benzylamino)-pyridin-3-yl]-2-(3,5-difluoro-phenyl)-acetamide]"
